Patent US9651864B2, “Negative resist composition, method for producing relief pattern using the same, and electronic component using the same” (DAI NIPPON PRINTING CO., LTD., priority 2010, dated 2017)

What was measured:
Type in all cases: physicochemical
[1] = Glass transition temperature (Tg) by differential thermal analyzer DSC-60; details: second heating to 200° C. at 10° C./min; deemed 200° C. or more when no inflection point until 200° C.
Experimental: Glass transition temperature (Tg): an intersection point of two tangents to smooth curving lines before and after the inflection temperature point of a DTA curve, the DTA curve being obtained when a material for forming a pattern of about 4 mg was heated to 200° C. at a rate of 10° C./min, cooled to room temperature and then heated to 200° C. at a rate of 10° C./min again, with a differential thermal analyzer (DSC-60 manufactured by Shimadzu Corporation).
Tg was deemed as 200° C. or more when no inflection point was found on the DTA curve until 200° C., which point corresponds to glass transition temperature.

[2] = Evaluation of solvent solubility of phenolic compound in typical resist solvents; design: key to Solubility in (D)-2: ⊚: The material for forming a pattern was dissolved at a concentration of 5 wt % at 23° C.; ◯: The material for forming a pattern was dissolved at a concentration of 1 wt % at 23° C.; X: The material for forming a pattern was insoluble; details: for Solubility in (D)-1: (D)-1: Propylene glycol monomethylether; for Solubility in (D)-1 / Solubility in (D)-2: 1 or 5 wt % at 23° C.; for Solubility in (D)-2: (D)-2: Propylene glycol monomethyl ether acetate
Experimental: The phenolic compounds (A-01 to A-15) obtained in Synthesis Examples 1 to 15 and the comparative phenolic compounds (CA-01 and CA-02) were added to the following typical resist solvents so as to have a concentration of 1 or 5 wt % at 23° C., followed by stirring:
(D)-1: Propylene glycol monomethylether
(D)-2: Propylene glycol monomethyl ether acetate
The thus-obtained mixtures were evaluated based on the following evaluation criterion.
? : The material for forming a pattern was dissolved at a concentration of 5 wt % at 23° C.,
∘: The material for forming a pattern was dissolved at a concentration of 1 wt % at 23° C.
x: The material for forming a pattern was insoluble.

[3] = as above; details: (D)-3: Cyclopentanone; 1 or 5 wt % at 23° C.

Row | Glass Transition Temperature [1] | solubility in resist solvents (in words) ([2]; summary of Table 3) | solubility in propylene glycol monomethyl ether [2] [%] | Compound | Solubility in (D)-1 [2] | Solubility in (D)-2 [2] | Solubility in (D)-3 [3]
1 | 27 °C | dissolve in only specific solvents | – | CC(C)(c1cc(CO)c(O)c(CO)c1)c1cc(CO)c(O)c(CO)c1 [CA-01, 2,2-bis(4-hydroxy-3,5-dihydroxymethylphenyl)propane, reference compound] | ◯ (The material for forming a pattern was dissolved at a concentration of 1 wt % at 23° C.) | X | ◯ (The material for forming a pattern was dissolved at a concentration of 1 wt % at 23° C.)
2 | 63 °C | – | 2 | CC(C)(C1CCC(c2cc(CO)c(O)c(CO)c2)(c2cc(CO)c(O)c(CO)c2)CC1)C1CCC(c2cc(CO)c(O)c(CO)c2)(c2cc(CO)c(O)c(CO)c2)CC1 [Compound A-01] | ◯ (The material for forming a pattern was dissolved at a concentration of 1 wt % at 23° C.) | ◯ (The material for forming a pattern was dissolved at a concentration of 1 wt % at 23° C.) | ⊚ (The material for forming a pattern was dissolved at a concentration of 5 wt % at 23° C.)
3 | 200 °C or | – | 5 | Cc1cc(C(c2cc(C)c(O)c(CO)c2)C(c2cc(C)c(O)c(CO)c2)c2cc(C)c(O)c(CO)c2)cc(CO)c1O [Compound A-02] | ⊚ (The material for forming a pattern was dissolved at a concentration of 5 wt % at 23° C.) | ◯ (The material for forming a pattern was dissolved at a concentration of 1 wt % at 23° C.) | ⊚ (The material for forming a pattern was dissolved at a concentration of 5 wt % at 23° C.)
4 | 62 °C | – | – | OCc1cc(C2(c3cc(CO)c(O)c(CO)c3)c3ccccc3-c3ccccc32)cc(CO)c1O [Compound A-04] | ⊚ (The material for forming a pattern was dissolved at a concentration of 5 wt % at 23° C.) | ⊚ (The material for forming a pattern was dissolved at a concentration of 5 wt % at 23° C.) | ⊚ (The material for forming a pattern was dissolved at a concentration of 5 wt % at 23° C.)
5 | 135 °C | – | – | CC(C)(c1cccc(C(C)(C)c2cc(CO)c(O)c(CO)c2)c1)c1cc(CO)c(O)c(CO)c1 [Compound A-05] | ⊚ (The material for forming a pattern was dissolved at a concentration of 5 wt % at 23° C.) | ◯ (The material for forming a pattern was dissolved at a concentration of 1 wt % at 23° C.) | ⊚ (The material for forming a pattern was dissolved at a concentration of 5 wt % at 23° C.)
6 | 200 °C or | – | – | OCc1cc(C(c2cc(CO)c(O)c(C3CCCCC3)c2)C(c2cc(CO)c(O)c(C3CCCCC3)c2)c2cc(CO)c(O)c(C3CCCCC3)c2)cc(C2CCCCC2)c1O [Compound A-09] | ⊚ (The material for forming a pattern was dissolved at a concentration of 5 wt % at 23° C.) | ⊚ (The material for forming a pattern was dissolved at a concentration of 5 wt % at 23° C.) | ⊚ (The material for forming a pattern was dissolved at a concentration of 5 wt % at 23° C.)
7 | 200 °C or | – | – | COCc1cc(C(c2cc(C)c(O)c(COC)c2)C(c2cc(C)c(O)c(COC)c2)c2cc(C)c(O)c(COC)c2)cc(C)c1O [Compound A-12] | ⊚ (The material for forming a pattern was dissolved at a concentration of 5 wt % at 23° C.) | ⊚ (The material for forming a pattern was dissolved at a concentration of 5 wt % at 23° C.) | ⊚ (The material for forming a pattern was dissolved at a concentration of 5 wt % at 23° C.)
8 | 200 °C or | – | – | Cc1cc(C2(c3cc(C)c(O)c(CO)c3)CCC(C(C)(C)C3CCC(c4cc(C)c(O)c(CO)c4)(c4cc(C)c(O)c(CO)c4)CC3)CC2)cc(CO)c1O [Compound A-13] | ⊚ (The material for forming a pattern was dissolved at a concentration of 5 wt % at 23° C.) | ⊚ (The material for forming a pattern was dissolved at a concentration of 5 wt % at 23° C.) | ⊚ (The material for forming a pattern was dissolved at a concentration of 5 wt % at 23° C.)

Row | Compound | Glass Transition Temperature [1] | solubility in resist solvents (in words) ([2]; summary of Table 3) | solubility in propylene glycol monomethyl ether [2] [%] | Solubility in (D)-1 [2] | Solubility in (D)-2 [2] | Solubility in (D)-3 [3]
9 | c1cc(C(c2ccc(OCC3CO3)cc2)C(c2ccc(OCC3CO3)cc2)c2ccc(OCC3CO3)cc2)ccc1OCC1CO1 (stereo not drawn) [TEP-G, reference compound] | 47 °C | – | – | – | – | –
